Laboratory results as given in EP0830813B1, “Fungicidal compositions” (Aventis CropScience UK Limited, priority 1996, dated 1998).

What was measured:
Assay type in all cases: in vivo
[1] = test system: Elysiphe graminis; assay: Control of Elysiphe graminis infection on sprayed winter wheat, assessed after 14 days; details: spray, average of 3 replicates
Experimental: Winter wheat was sprayed with cyprodinil, PBO and mixtures of the two. Thirty three days after application the winter wheat was assessed for levels of Leptosphaeria nodorum compared with untreated cereal, whereby the level of control could be calculated. Results (average of 4 replicates) are shown below. In a similar experiment levels of […] graminis infection were determined after 14 days. Results (average of 3 replicates) are shown below.

[2] = test system: Leptosphaeria nodorum; assay: Control of Leptosphaeria nodorum on sprayed winter wheat, assessed 33 days after application; details: spray, vs untreated, average of 4 replicates
Experimental: (§1) Winter wheat was sprayed with cyprodinil, PBO and mixtures of the two. Thirty three days after application the winter wheat was assessed for levels of Leptosphaeria nodorum compared with untreated cereal, whereby the level of control could be calculated. Results (average of 4 replicates) are shown below.

[3] = test system: Leptosphaeria nodorum and Septoria tritici mixed infection; assay: Control of Leptosphaeria nodorum and Septoria tritici mixed infection on sprayed winter wheat, assessed 23 days after application; details: spray, average of 4 replicates
Experimental: as §1, with “below. In a similar experiment, levels of Leptosphaeria nodorum and Septoria tritici mixed infection were assessed 23 days after application. Results (average of 4 replicates) are shown below.” for “below.”

[4] = test system: Erysiphe graminis; assay: Control of Erysiphe graminis infection on sprayed winter wheat, assessed after 30 days; details: spray, average of 4 replicates
Experimental: Winter wheat was sprayed with cyprodinil, PBO and mixtures of the two. Thirty three days after application the winter wheat was assessed for levels of Leptosphaeria nodorum compared with untreated cereal, whereby the level of control could be calculated. Results (average of 4 replicates) are shown below. In a similar experiment levels of Erysiphe graminis infection were determined after 30 days. Results (average of 4 replicates) are shown below.

Row | SMILES | % control ([1]; 300 g ai/ha) | % control ([2]; 300 g ai / ha) | % control ([3]; 300 g ai / ha) | % control ([4]; 300 g ai / ha) | % control ([1]; 150 g ai/ha) | % control ([1]; 600 g ai/ha) | % control ([2]; 600 g ai / ha) | % control ([3]; 600 g ai / ha) | % control ([4]; 600 g ai / ha)
1 | CCCCOCCOCCOCc1cc2c(cc1CCC)OCO2 [PBO, piperonyl butoxide] | 0.0% | 0.0% | 0.0% | 0.0% | – | – | – | – | –
2 | Cc1cc(C2CC2)nc(Nc2ccccc2)n1 [cyprodinil] | 67% | – | – | – | 35% | 98% | 23.1% | 0.0% | 34.4%
